Reference: patent US20240409573A1, “CALICHEAMICIN DERIVATIVES AND ANTIBODY DRUG CONJUGATES THEREOF” (priority 2017, published 2024)

What was measured:
[1] = test system: TF-1 AML xenograft tumors; test: TF-1 AML subcutaneous xenograft model; format: in vivo, female Athymic nu/nu mice; details: Mylotarg dosed at 1 mg/kg Q4dx4 intravenously
Description: The cyno-human chimeric anti 0033 antibody, 11A1, was conjugated to various linker-payloads (as per 0033 conjugates in Examples 50-110) and tested in Acute Myeloid Leukemia (AML) xenograft models. For each model described below the first dose was given on Day 0. The tumors were measured at least once a week and their volume was calculated with the formula: tumor volume (mm^3)=0.5×(tumor width^2)(tumor length). The mean tumor volumes (±S.E.M.) for each treatment group were calculated having a maximum of 10 animals and a minimum of 4 animals to be included. All animal experiments were conducted in a facility accredited by the Association for Assessment of Laboratory Animal Care under Institutional Animal Care and Use Committee guidelines and appropriate animal research approval.
The effects of anti-CD33 ADCs were examined in immunodeficient mice on the in vivo growth of human tumors. For subcutaneous (sc) AML models, 10×10^6 TF-1 cells were implanted subcutaneously in the flank of female Athymic nu/nu mice. When the tumors reached an average volume of 300 mm^3, animals were staged to ensure uniformity of the tumor size among various treatment groups. The TF-1 AML sc xenograft model was dosed intravenously one time every four days for four cycles (Q4dx4) with PBS vehicle or humanized anti-CD33 […] at the doses provided in Tables 11-13.

[2] = test system: N87 (gastric cancer) cells, Her2-target expressing; test: In vitro cell assay, cell viability by MTS, N87; format: cell-based; details: 96 h, read-out: Average IC50, N87
Description: (§1) Her2-Target expressing (BT474 (breast cancer), N87 (gastric cancer), MDA-MB-361-DYT2 (breast cancer)) or Her2-non-expressing (MDA-MB-468, HT29) cells, or 0033-target expressing HL60, HEL92.1.7, NB4, TF-1 or 0033-non-expressing (Raji) cells were seeded in 96-well cell culture plates for 24 hours before treatment. Cells were treated with 3-fold serially diluted antibody-drug conjugates or free compounds (i.e., no antibody conjugated to the drug) in duplicate at 10 concentrations. Cell viability was determined by CellTiter 96® AQueous One Solution Cell Proliferation MTS Assay (Promega, Madison WI) 96 hours after treatment. Relative cell viability was determined as percentage of untreated control. IC50 values were calculated using a four parameter logistic model #203 with XLfit v4.2 (IDBS, Guildford, Surry, UK). Results are shown below in Table 3 (for payloads), Table 4 (for Herceptin conjugates), and Table 5 (for CD33 conjugates).

[3] = test system: MDA-MB-361-DYT2 (breast cancer) cells, Her2-target expressing; test: In vitro cell assay, cell viability by MTS, MDA-MB-361-DYT2; format: cell-based; details: 96 h, read-out: Average IC50, MDA-MB-361-DYT2
Description: as §1

[4] = test system: HT29 cells, Her2-non-expressing; test: In vitro cell assay, cell viability by MTS, HT29; format: cell-based; details: Homo sapiens, HT-29, 96 h, read-out: Average IC50, HT29
Description: as §1

[5] = test system: HL60 cells, CD33-target expressing; test: In vitro cell assay, cell viability by MTS, HL60; format: cell-based; details: Homo sapiens, HL-60, 96 h, read-out: Average IC50, HL-60
Description: as §1

[6] = test system: HEL92.1.7 cells, CD33-target expressing; test: In vitro cell assay, cell viability by MTS, HEL92.1.7; format: cell-based; details: Homo sapiens, HEL 92.1.7, 96 h, read-out: Average IC50, HEL92.1.7
Description: as §1

[7] = test system: NB4 cells, CD33-target expressing; test: In vitro cell assay, cell viability by MTS, NB4; format: cell-based; details: Homo sapiens, NB-4, 96 h, read-out: Average IC50, NB4
Description: as §1

[8] = test system: TF-1 cells, CD33-target expressing; test: In vitro cell assay, cell viability by MTS, TF-1; format: cell-based; details: Homo sapiens, TF-1, 96 h, read-out: Average IC50, TF-1
Description: as §1

[9] = test system: Raji cells, CD33-non-expressing; test: In vitro cell assay, cell viability by MTS, Raji; format: cell-based; details: Homo sapiens, 96 h, read-out: Average IC50, Raji
Description: as §1

Row | Compound | efficacy in TF-1 AML xenografts [1] | IC50 [2] | IC50 [3] | IC50 [4] | IC50 [5] | IC50 [6] | IC50 [7] | IC50 [8] | IC50 [9]
1 | Mylotarg®: "anti-CD33 humanized monoclonal antibody conjugated to calicheamicin for the treatment of acute myelogenous leukemia" | ineffective | – | – | – | – | – | – | – | –
2 | CCN[C@H]1CO[C@@H](O[C@H]2[C@H](O[C@H]3C#C/C=C\C#C[C@]4(O)CC(=O)C(NC(=O)OC)=C3/C4=C\CSSc3ccc(C(=O)O)cc3)O[C@H](C)[C@@H](NO[C@H]3C[C@H](O)[C@H](SC(=O)c4c(C)c(I)c(O[C@@H]5O[C@@H](C)[C@H](O)[C@@H](OC)[C@H]5O)c(OC)c4OC)[C@@H](C)O3)[C@@H]2O)C[C@@H]1OC [Example P13] | – | 0.536 nM | 0.982 nM | 0.792 nM | 0.044 nM | 0.039 nM | 0.023 nM | 0.331 nM | 0.022 nM
3 | CCN[C@H]1CO[C@@H](O[C@H]2[C@H](O[C@H]3C#C/C=C\C#C[C@]4(O)CC(=O)C(NC(=O)OC)=C3/C4=C\CSSC(C)(C)C(=O)O)O[C@H](C)[C@@H](NO[C@H]3C[C@H](O)[C@H](SC(=O)c4c(C)c(I)c(O[C@@H]5O[C@@H](C)[C@H](O)[C@@H](OC)[C@H]5O)c(OC)c4OC)[C@@H](C)O3)[C@@H]2O)C[C@@H]1OC [Example P12] | – | 0.64 nM | 4.16 nM | 0.687 nM | 0.04 nM | 0.102 nM | 0.005 nM | 0.245 nM | 0.033 nM
4 | CCN[C@H]1CO[C@@H](O[C@@H]2C(O)[C@H](NO[C@H]3C[C@H](O)[C@H](SC(=O)c4c(C)c(I)c(O[C@@H]5O[C@@H](C)[C@H](O)[C@@H](OC)[C@H]5O)c(OC)c4OC)[C@@H](C)O3)[C@@H](C)O[C@H]2O[C@H]2C#C/C=C\C#C[C@]3(O)CC(=O)C(NC(=O)OC)=C2/C3=C\CSSc2ncccc2C(=O)O)C[C@@H]1OC (stereo in doubt) [Example P46] | – | 0.544 nM | 2.83 nM | 0.77 nM | 0.025 nM | 0.046 nM | 0.02 nM | 0.176 nM | 0.039 nM
5 | CCN[C@H]1CO[C@@H](O[C@@H]2C(O)[C@H](NO[C@H]3C[C@H](O)[C@H](SC(=O)c4c(C)c(I)c(O[C@@H]5O[C@@H](C)[C@H](O)[C@@H](OC)[C@H]5O)c(OC)c4OC)[C@@H](C)O3)[C@@H](C)O[C@H]2O[C@H]2C#C/C=C\C#C[C@]3(O)CC(=O)C(NC(=O)OC)=C2/C3=C\CSSC(C)(C)CCC(=O)NCCCC[C@H](N)C(=O)O)C[C@@H]1OC (stereo in doubt) [Example P43] | – | 1.23 nM | 6.4 nM | 3.18 nM | 1.36 nM | 4.9 nM | 0.516 nM | 9.01 nM | 2.85 nM
